Data published in patent US20260028365A1 (BIOGEN MA INC., priority 2022, published 2026).
Where a name gives a salt, the structure may show the parent alone.

Columns and labels:
Tyk2 = Tyk2 (Homo sapiens (Human), UniProt P29597); test: pSTAT4 Cell Assay (MSD, NK92 cells); assay type: cell-based; conditions: MSD
JH2 domain of human Tyk2 = JH2 domain of human Tyk2 (Homo sapiens (Human), UniProt P29597); test: JH2 Biochemical Assay (TR-FRET probe displacement); assay type: binding; conditions: TR-FRET probe displacement, JH2 domain of human Tyk2
Sequence of JH2 domain of human Tyk2 (P29597 575-876): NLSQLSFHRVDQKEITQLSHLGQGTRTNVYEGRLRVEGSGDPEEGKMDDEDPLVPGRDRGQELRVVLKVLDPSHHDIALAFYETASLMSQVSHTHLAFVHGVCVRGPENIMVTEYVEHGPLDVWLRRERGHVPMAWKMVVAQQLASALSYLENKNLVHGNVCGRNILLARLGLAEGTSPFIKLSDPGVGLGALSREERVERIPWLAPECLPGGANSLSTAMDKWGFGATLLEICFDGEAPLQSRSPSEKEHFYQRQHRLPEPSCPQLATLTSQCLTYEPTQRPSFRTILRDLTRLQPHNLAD

Sequence of Tyk2 (P29597 whole entry, the tested form may be a part): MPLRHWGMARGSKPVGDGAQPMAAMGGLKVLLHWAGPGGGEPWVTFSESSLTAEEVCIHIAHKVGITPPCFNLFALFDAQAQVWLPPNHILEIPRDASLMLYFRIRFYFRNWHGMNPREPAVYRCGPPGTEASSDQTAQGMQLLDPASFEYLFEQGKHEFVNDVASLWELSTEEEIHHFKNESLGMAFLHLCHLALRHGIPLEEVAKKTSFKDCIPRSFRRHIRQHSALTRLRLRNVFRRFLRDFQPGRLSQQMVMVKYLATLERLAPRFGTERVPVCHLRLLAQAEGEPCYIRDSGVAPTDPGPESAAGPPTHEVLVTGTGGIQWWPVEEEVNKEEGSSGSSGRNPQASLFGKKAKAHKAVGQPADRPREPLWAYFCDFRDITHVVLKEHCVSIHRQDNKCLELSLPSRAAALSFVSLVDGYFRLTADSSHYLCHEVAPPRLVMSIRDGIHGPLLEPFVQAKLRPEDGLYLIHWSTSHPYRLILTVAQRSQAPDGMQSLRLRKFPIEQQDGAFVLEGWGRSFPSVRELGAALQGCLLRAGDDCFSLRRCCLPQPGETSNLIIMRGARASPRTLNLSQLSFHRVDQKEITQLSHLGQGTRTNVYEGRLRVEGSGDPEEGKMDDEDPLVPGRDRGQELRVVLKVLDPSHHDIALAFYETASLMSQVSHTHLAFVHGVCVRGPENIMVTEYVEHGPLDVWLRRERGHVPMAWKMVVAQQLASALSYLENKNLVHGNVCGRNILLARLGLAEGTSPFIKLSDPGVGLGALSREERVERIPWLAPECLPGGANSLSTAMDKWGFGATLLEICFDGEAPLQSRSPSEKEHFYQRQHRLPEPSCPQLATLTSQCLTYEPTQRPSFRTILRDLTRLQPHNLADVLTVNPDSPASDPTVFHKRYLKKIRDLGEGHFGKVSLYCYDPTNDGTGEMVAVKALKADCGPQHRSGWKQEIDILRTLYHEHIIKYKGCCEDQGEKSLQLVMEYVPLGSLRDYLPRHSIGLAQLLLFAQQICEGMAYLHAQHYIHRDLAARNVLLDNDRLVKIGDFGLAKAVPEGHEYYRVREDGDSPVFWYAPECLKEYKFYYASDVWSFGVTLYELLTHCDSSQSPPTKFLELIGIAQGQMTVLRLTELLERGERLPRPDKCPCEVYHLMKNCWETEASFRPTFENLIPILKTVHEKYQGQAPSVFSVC

For `CC(=O)Nc1cc(Nc2cc(C)nc(C(C)(F)F)n2)c(OCc2cnn(C)c2C)cn1` [Example 138, N-(4-((2-(1,1-difluoroethyl)-6-methylpyrimidin-4-yl)amino)-5-((1,5-dimethyl-1H-pyrazol-4-yl)methoxy)pyridin-2-yl)acetamide], the IC50 (Tyk2) was at least 1000 nM and the IC50 (JH2 domain of human Tyk2) was 100 to 1000 nM.

Work on `CC(=O)Nc1cc(Nc2cccc(C(C)(F)F)n2)c(OCCO)cn1` [Example 140, N-(4-((6-(1,1-difluoroethyl)pyridin-2-yl)amino)-5-(2-hydroxyethoxy)pyridin-2-yl)acetamide] yielded an IC50 (Tyk2) of at most 10 nM and an IC50 (JH2 domain of human Tyk2) of at most 10 nM.

Compound `CC(=O)Nc1cc(Nc2cc(C)nc(C34CC(CO3)C4)n2)c(-c2ccc(COC(F)F)cn2)cn1` [Example 142, N-(4′-((2-(2-oxabicyclo[2.1.1]hexan-1-yl)-6-methylpyrimidin-4-yl)amino)-5-((difluoromethoxy)methyl)-[2,3′-bipyridin]-6′-yl)acetamide] has an IC50 (Tyk2) of 10 to 100 nM and an IC50 (JH2 domain of human Tyk2) of at most 10 nM.

With `CC(=O)Nc1cc(Nc2ccnc(C(C)(F)F)n2)c(-c2ccc3c(n2)OCC(C)(C)O3)cn1` [Example 144, N-(4-((2-(1,1-difluoroethyl)pyrimidin-4-yl)amino)-5-(2,2-dimethyl-2,3-dihydro-[1,4]dioxino[2,3-b]pyridin-6-yl)pyridin-2-yl)acetamide trifluoroacetate] the IC50 (Tyk2) was at most 10 nM and the IC50 (JH2 domain of human Tyk2) was at most 10 nM.

Work on `CC(=O)Nc1cc(Nc2cccc(C(C)(F)F)n2)c(-c2ccn(C)n2)cn1` [Example 147, N-(4-((6-(1,1-difluoroethyl)pyridin-2-yl)amino)-5-(1-methyl-1H-pyrazol-3-yl)pyridin-2-yl)acetamide] yielded an IC50 (Tyk2) of at most 10 nM and an IC50 (JH2 domain of human Tyk2) of at most 10 nM.

In the case of `CC(=O)Nc1cc(Nc2cc(C)nc(C(C)(F)F)n2)c(-c2cccc(OC(F)F)n2)cn1` [Example 150, N-(4′-((2-(1,1-difluoroethyl)-6-methylpyrimidin-4-yl)amino)-6-(difluoromethoxy)-[2,3′-bipyridin]-6′-yl)acetamide], the IC50 (Tyk2) is reported as at most 10 nM and the IC50 (JH2 domain of human Tyk2) is reported as at most 10 nM.

With `CCC(F)(F)c1cnc(NC(C)=O)cc1Nc1cc(C)nc(C(C)(F)F)n1` [Example 154, N-(4-((2-(1,1-difluoroethyl)-6-methylpyrimidin-4-yl)amino)-5-(1,1-difluoropropyl)pyridin-2-yl)acetamide] the IC50 (Tyk2) was at least 1000 nM and the IC50 (JH2 domain of human Tyk2) was 10 to 100 nM.

`COc1cc(-c2cnc(NC(C)=O)cc2Nc2cc(C)nc(C(C)(F)F)n2)nc(C)n1` [Example 155, N-(4-((2-(1,1-difluoroethyl)-6-methylpyrimidin-4-yl)amino)-5-(6-methoxy-2-methylpyrimidin-4-yl)pyridin-2-yl)acetamide] gave an IC50 (Tyk2) of 10 to 100 nM and an IC50 (JH2 domain of human Tyk2) of at most 10 nM.

`COc1nc(C)cc(-c2cnc(NC(C)=O)cc2Nc2cc(C)nc(C(C)(F)F)n2)n1` [Example 156, N-(4-((2-(1,1-difluoroethyl)-6-methylpyrimidin-4-yl)amino)-5-(2-methoxy-6-methylpyrimidin-4-yl)pyridin-2-yl)acetamide] was tested, and the IC50 (Tyk2) was at most 10 nM and the IC50 (JH2 domain of human Tyk2) was at most 10 nM.

For `CC(=O)Nc1cc(Nc2cc(C)nc(C(C)(F)F)n2)c(-c2ncn(C)n2)cn1` [Example 157, N-(4-((2-(1,1-difluoroethyl)-6-methylpyrimidin-4-yl)amino)-5-(1-methyl-1H-1,2,4-triazol-3-yl)pyridin-2-yl)acetamide], the IC50 (Tyk2) was 100 to 1000 nM and the IC50 (JH2 domain of human Tyk2) was at most 10 nM.

`CC(=O)Nc1cc(Nc2cccc(C(C)(F)F)n2)c(-c2ccc(=O)n(C)n2)cn1` [Example 158, N-(4-((6-(1,1-difluoroethyl)pyridin-2-yl)amino)-5-(1-methyl-6-oxo-1,6-dihydropyridazin-3-yl)pyridin-2-yl)acetamide] showed an IC50 (Tyk2) of at most 10 nM and an IC50 (JH2 domain of human Tyk2) of at most 10 nM.

In the case of `CC(=O)Nc1cc(Nc2cccc(C(C)(F)F)n2)c(-c2cn(C)c(=O)cn2)cn1` [Example 159, N-(4-((6-(1,1-difluoroethyl)pyridin-2-yl)amino)-5-(4-methyl-5-oxo-4,5-dihydropyrazin-2-yl)pyridin-2-yl)acetamide], the IC50 (Tyk2) is reported as 10 to 100 nM and the IC50 (JH2 domain of human Tyk2) is reported as at most 10 nM.

Work on `CC(=O)Nc1cc(Nc2cccc(C(C)(F)F)n2)c(-c2ccn(C)c(=O)n2)cn1` [Example 160, N-(4-((6-(1,1-difluoroethyl)pyridin-2-yl)amino)-5-(1-methyl-2-oxo-1,2-dihydropyrimidin-4-yl)pyridin-2-yl)acetamide] yielded an IC50 (Tyk2) of at most 10 nM and an IC50 (JH2 domain of human Tyk2) of at most 10 nM.

`CC(=O)Nc1cc(Nc2cccc(C(C)(F)F)n2)c(-c2cc(=O)n(C)cn2)cn1` [Example 161, N-(4-((6-(1,1-difluoroethyl)pyridin-2-yl)amino)-5-(1-methyl-6-oxo-1,6-dihydropyrimidin-4-yl)pyridin-2-yl)acetamide] showed an IC50 (Tyk2) of 10 to 100 nM and an IC50 (JH2 domain of human Tyk2) of at most 10 nM.

With `COc1cc(-c2cnc(NC(C)=O)cc2Nc2cccc(C(C)(F)F)n2)ncn1` [Example 162, N-(4-((6-(1,1-difluoroethyl)pyridin-2-yl)amino)-5-(6-methoxypyrimidin-4-yl)pyridin-2-yl)acetamide] the IC50 (Tyk2) was at most 10 nM and the IC50 (JH2 domain of human Tyk2) was at most 10 nM.

Work on `COc1cc(-c2cnc(NC(C)=O)cc2Nc2ccnc(C(C)(F)F)n2)nc(C)n1` [Example 163, N-(4-((2-(1,1-difluoroethyl)pyrimidin-4-yl)amino)-5-(6-methoxy-2-methylpyrimidin-4-yl)pyridin-2-yl)acetamide] yielded an IC50 (Tyk2) of 10 to 100 nM and an IC50 (JH2 domain of human Tyk2) of at most 10 nM.

Compound `COc1nc(C)cc(-c2cnc(NC(C)=O)cc2Nc2ccnc(C(C)(F)F)n2)n1` [Example 164, N-(4-((2-(1,1-difluoroethyl)pyrimidin-4-yl)amino)-5-(2-methoxy-6-methylpyrimidin-4-yl)pyridin-2-yl)acetamide] has an IC50 (Tyk2) of 10 to 100 nM and an IC50 (JH2 domain of human Tyk2) of at most 10 nM.

Work on `CC(=O)Nc1cc(Nc2ccnc(C(C)(F)F)n2)c(-c2ncn(C)n2)cn1` [Example 165, N-(4-((2-(1,1-difluoroethyl)pyrimidin-4-yl)amino)-5-(1-methyl-1H-1,2,4-triazol-3-yl)pyridin-2-yl)acetamide] yielded an IC50 (Tyk2) of 100 to 1000 nM and an IC50 (JH2 domain of human Tyk2) of 10 to 100 nM.

`CCc1cc(Nc2cc(NC(C)=O)ncc2-c2ncn(C)n2)nc(C(C)(F)F)n1` [Example 166, N-(4-((2-(1,1-difluoroethyl)-6-ethylpyrimidin-4-yl)amino)-5-(1-methyl-1H-1,2,4-triazol-3-yl)pyridin-2-yl)acetamide] showed an IC50 (Tyk2) of 10 to 100 nM and an IC50 (JH2 domain of human Tyk2) of at most 10 nM.

`CCc1cc(Nc2cc(NC(C)=O)ncc2-c2nnc(C)s2)nc(C(C)(F)F)n1` [Example 167, N-(4-((2-(1,1-difluoroethyl)-6-ethylpyrimidin-4-yl)amino)-5-(5-methyl-1,3,4-thiadiazol-2-yl)pyridin-2-yl)acetamide] was tested, and the IC50 (Tyk2) was at most 10 nM and the IC50 (JH2 domain of human Tyk2) was at most 10 nM.

`CCc1cc(Nc2cc(NC(C)=O)ncc2-c2nnc(C)o2)nc(C(C)(F)F)n1` [Example 168, N-(4-((2-(1,1-difluoroethyl)-6-ethylpyrimidin-4-yl)amino)-5-(5-methyl-1,3,4-oxadiazol-2-yl)pyridin-2-yl)acetamide] gave an IC50 (Tyk2) of 10 to 100 nM and an IC50 (JH2 domain of human Tyk2) of at most 10 nM.

For `CC(=O)Nc1cc(Nc2cccc(OC(F)F)n2)c(-c2ccncn2)cn1` [Example 171, N-(4-((6-(difluoromethoxy)pyridin-2-yl)amino)-5-(pyrimidin-4-yl)pyridin-2-yl)acetamide], the IC50 (Tyk2) was 100 to 1000 nM and the IC50 (JH2 domain of human Tyk2) was at most 10 nM.

For `CC(=O)Nc1cc(Nc2cccc(C(C)(F)F)n2)c(-c2ccnc(C)n2)cn1` [Example 172, N-(4-((6-(1,1-difluoroethyl)pyridin-2-yl)amino)-5-(2-methylpyrimidin-4-yl)pyridin-2-yl)acetamide], the IC50 (Tyk2) was at most 10 nM and the IC50 (JH2 domain of human Tyk2) was at most 10 nM.
